Reference: patent US10603273B2, “Membrane-adherent self-assembled systems for treatment of ocular disorders” (Integral Biosystems LLC, priority 2014, dated 2020)
Values after ≈ are worked out from the molar mass of the structure shown. Read-outs that look alike come from different tables or passages of the source. Blank lines part the entries; values can stand above or below the molecule they belong to.

Tests used:
[1] = Solubility of API in Phase I excipient mixtures; type: physicochemical
Method: Solubility of APIs were examined in different Phase I mixtures.
Initially, the solubility of fluticasone propionate was determined in 10 g of Phase I composed of a 7:3 (w/w) mixture of PHOSAL™ Medium Chain Triglycerides (“MCT”) and polyethylene glycol-400 (PEG-400). MCT, a mixture of phosphatidylcholine and medium chain triglycerides, is the hydrophobic component and PEG-400 is the hydrophilic component in this exemplary Phase I. MCT and PEG-400 were added into a glass vial and the mixture was vortexed for 2 min until the components formed a homogeneous mixture. Fluticasone propionate was added in an incremental manner and stirred at 850 rpm using a Scilogex MSH 280 Pro hot stir plate at a temperature of 37° C. Stirring was continued until saturation solubility was reached.
In order to increase the solubility of the fluticasone propionate in Phase I, mineral oil (Drakeol 600LT) was added into the composition. A Phase I containing MCT: PEG-400: mineral oil weight ratio of 7:2:1 was prepared as described above. The total amount of Phase I was 10 g. Fluticasone propionate was added in an incremental manner and the mixture was stirred for 5 min. and vortexed for 5 min after each addition of fluticasone propionate into the mixture. In this Phase I, 98.2 mg of fluticasone propionate dissolved completely in 37 min.
Another Phase I mixture containing PEG-400, polypropylene glycol (PPG), and cremophor in a weight ratio 2.9:7:0.1 was also evaluated. Cremophor was used because it is widely used as a co-solvent to enhance the solubility of poorly soluble drugs.
In this Phase I, 200.30 mg of fluticasone propionate was completely dissolved in 10 g when stirred at 1200 rpm for 2 min at 45° C.
Another Phase I mixture was produced containing 30% w/w PEG-400, 60% w/w PPG, 5% w/w MCT, 0.25% w/w cetyl alcohol, and 4.75% w/w ethanol. In 10 g of this Phase I, 180 mg fluticasone propionate dissolved completely after stirring at 1280 rpm for 15 min at 45° C.
Triamcinolone acetonide is a […] anti-inflammatory drug having low aqueous solubility.
A Phase I containing 30% w/w PEG-400, 20% w/w PPG, 0.5% w/w cetyl alcohol, 9.5% w/w ethanol, 5% w/w MCT and 35% w/w Castor oil was produced. Triamcinolone acetonide was added incrementally and the mixture stirred at 840 rpm using a Scilogex MSH 280 Pro set to 45° C.

[2] = Particle size distribution (Horiba particle size analyzer); type: physicochemical; details: nanodispersion of the named drug, drug delivery platform of Example 1
Method: Particle sizing was carried out by adding approximately 20 μL of the Phase III dispersion in a solution of 2% w/w glycerin, 0.1% w/w sodium pyrophosphate decahydrate. Particle size distribution of the Phase III nano-dispersions were measured using a Horiba LA-950V2 particle size analyzer at room temperature, i.e., 22-25° C.

[3] = Solubility of fluticasone propionate in nanostructured dispersions and single excipients; type: physicochemical; details: for solubility: oil or lipid
Method: Phase I was prepared containing PEG-400 at 20%, PPG at 10%, cetyl alcohol at 10%, MCT at 1%, PEG-stearate at 7%, poloxamer 407 at 2.22%, tyloxapol at 1%, polysorbate 80 at 1%, castor oil at 38%, and fluticasone propionate at 1-2%.
The composition of Phase II was sodium phosphate monobasic (0.017%), sodium phosphate dibasic (0.052%), sodium hyaluronate (0.15%), and dH2O (99.78%).
Phase I was mixed with Phase II at a weight ratio of 1:9.
The concentration of fluticasone propionate achievable in this formulation was 0.1-0.2%.
The solubility of fluticasone propionate in cetyl alcohol was 0.3 mg/ml. As just described, the final dispersion has a fluticasone propionate concentration of 1-2 mg/ml (0.1-0.2%).
In this example, cholesterol was added to obtain a higher concentration of hydrophobic excipients. The composition of Phase I was PEG-400 (20%), PPG (10%), cetyl alcohol (10%), cholesterol (2%), MCT (10%), PEG-stearate (5%), poloxamer 407 (2.22%), tyloxapol (1%), polysorbate 80 (1%), castor oil (36.9%), and fluticasone propionate (1-5%).
The final concentration of fluticasone propionate achievable in this formulation is 0.1-0.5% The maximum amount of fluticasone propionate expected to be solubilized by adding up the amount solubilized in each separate excipient is 0.06%.

[4] = Encapsulation efficiency (centrifugation, HPLC); type: physicochemical; details: 0.1% nanostructured dispersion (Phase III); mg drug per g dispersion
Method: Encapsulation efficiency (mg/G) was measured by placing 1.0 g of drug-containing Phase III into a 1.5 mL centrifuge tube and centrifuging it at 6000 rpm for 10 minutes using an Eppendorf Centrifuge 5145D at room temperature. 100 μL of the centrifugate was transferred to an HPLC vial containing 900 μL of 75% acetonitrile/25% water. The samples were measured for concentration of drug, e.g., dexamethasone, by HPLC at λmax=239 nm. The concentration was calculated as mg drug per g of the Phase III dispersion.

[5] = In-vitro drug release, dialysis device, 1% HP-β-CD phosphate buffer pH 7.4, 37° C.; type: in vitro ADME; details: 0.1% nanostructured dispersion; released over 3 hours
Method: In-vitro drug release was determined at 37° C., pH 7.4 as follows: The Phase III dispersion (1 g) was transferred into a Spectra/Pore Float-A-Lyzer G2 dialysis device, which was then placed into a 50 mL locking centrifuge tube containing 40 g of 1% hydroxylpropyl-β-cyclodextrin (HP-β-CD) in phosphate buffer at pH 7.4, 37° C. The entire assembly was loaded onto a Robbins Scientific Model 400 rotating incubator. At each time point, 1 mL of sample was retrieved and fresh buffer added to replace the volume removed. Samples were measured for drug content using HPLC at λmax=239 nm.

[6] = tested on: freshly excised cornea; test: Ex-vivo corneal permeability, Franz-Cell diffusion chamber; type: in vitro ADME, calf; details: % of applied drug in 22 hours, 37° C.
Description: Ex-vivo corneal permeability testing is a useful tool to screen formulations for their ability to penetrate ocular tissues. Using freshly excised cornea, formulations can be tested for their ability to diffuse across the cornea membrane. The ability to diffuse through biological membranes is directly related to the formulation excipients, its physical state (e.g., suspension, solution, emulsion, dispersion) and its partition coefficient (P) and log P. Fresh calf eyes were obtained from a nearby slaughterhouse and the corneas carefully excised using sterile technique. The corneas must be freshly excised and used within 1-2 hours. The corneas were excised in a sterilized laminar flow hood, in a Class 100 environment. The excisions were performed by first draining the aqueous humor followed by carefully cutting out the cornea using a scalpel for the initial incision; forceps and scissors were used to cut the remaining tissue. […] The volume was recorded, and the remaining cells filled. […] Samples were added in rapid succession by depositing 200 μL of the formulation into each donor chamber using a calibrated pipet and the times recorded. […] The samples were analyzed for API content by HPLC as described above. […] Flux can be calculated by the formula: J=Q/(A·t), where Q is the quantity of compound traversing the membrane in time t, and A is the area of exposed membrane in cm^2. […]

- saturation solubility in Phase I ([1]; in 10 g of Phase I: 30% PEG-400, 20% PPG, 0.5% cetyl alcohol, 9.5% ethanol, 5% MCT, 35% castor oil, 840 rpm, 45° C.): 230 mg
Structure (SMILES): CC1(C)O[C@@H]2C[C@H]3[C@@H]4CCC5=CC(=O)C=C[C@]5(C)[C@@]4(F)[C@@H](O)C[C@]3(C)[C@]2(C(=O)CO)O1 [triamcinolone acetonide]

- amount completely dissolved in Phase I ([1]; in 10 g of 5% cetyl alcohol in ethanol, 1200 rpm, 2 min, 45° C.): 200.30 mg
- amount dissolved completely in Phase I ([1]; in 10 g of Phase I, MCT:PEG-400:mineral oil 7:2:1, dissolved in 37 min): 98.2 mg
- amount dissolved in Phase I ([1]; in 10 g of Phase I: 30% PEG-400, 60% PPG, 5% MCT, 0.25% cetyl alcohol, 4.75% ethanol, 1280 rpm, 45° C.): 180 mg
- D50 [2]: 0.141 μm
- D90 [2]: 0.181 μm
- maximum concentration expected from adding the solubilized contribution of each excipient ([3]; Example 8 excipients): 0.05%
- fluticasone propionate concentration of final dispersion ([3]; Example 8 final dispersion): 1 to 2 mg/mL
- concentration of fluticasone propionate achievable in formulation ([3]; Example 8 formulation, Phase I:Phase II 1:9, by weight): 0.1-0.2%
- maximum amount expected to be solubilized by adding up the amount solubilized in each separate excipient ([3]; Example 9 excipients): 0.06%
- final concentration of fluticasone propionate achievable in formulation ([3]; Example 9 formulation with cholesterol, Phase I:Phase II 1:9): 0.1-0.5%
- solubility ([3]; PHOSAL MCT alone, read-out: solubility in MCT): 150 µg/mL (≈ 300 µM)
- solubility ([3]; cetyl alcohol alone, read-out: solubility in cetyl alcohol): 300 µg/mL (≈ 599 µM)
Structure (SMILES): CCC(=O)O[C@]1(C(=O)SCF)[C@H](C)C[C@H]2[C@@H]3C[C@H](F)C4=CC(=O)C=C[C@]4(C)[C@@]3(F)[C@@H](O)C[C@@]21C [fluticasone propionate]

- amount of drug encapsulated [4]: 1.24 mg/G
- in vitro drug release [5]: 35%
- corneal permeability, drug released into the receptor solution [6]: 36%
Structure (SMILES): CCOC(=O)O[C@]1(C(=O)OCCl)CC[C@H]2[C@@H]3CCC4=CC(=O)C=C[C@]4(C)[C@H]3[C@@H](O)C[C@@]21C [loteprednol etabonate]

- in vitro drug release [5]: at least 25%
Structure (SMILES): C[C@@H]1C[C@H]2[C@@H]3CCC4=CC(=O)C=C[C@]4(C)[C@@]3(F)[C@@H](O)C[C@]2(C)[C@@]1(O)C(=O)CO [dexamethasone]
